Each structure is given as a SMILES string. Activity calls are given as the source filed them. The rule behind the calls is not given here.

For data set [1], the target named is T1, Endothelial PAS domain-containing protein 1 (Homo sapiens, UniProt Q99814). Briefly: Inhibition of HIF2alpha in human 786-0 cells expressing truncated HIF1alpha assessed as reduction in luciferase activity after 24 hrs by reporter gene assay. The format is cell-based. (A reporter such as luciferase makes a cellular process visible.)
T1 sequence (Q99814 whole entry, the tested form may be a part): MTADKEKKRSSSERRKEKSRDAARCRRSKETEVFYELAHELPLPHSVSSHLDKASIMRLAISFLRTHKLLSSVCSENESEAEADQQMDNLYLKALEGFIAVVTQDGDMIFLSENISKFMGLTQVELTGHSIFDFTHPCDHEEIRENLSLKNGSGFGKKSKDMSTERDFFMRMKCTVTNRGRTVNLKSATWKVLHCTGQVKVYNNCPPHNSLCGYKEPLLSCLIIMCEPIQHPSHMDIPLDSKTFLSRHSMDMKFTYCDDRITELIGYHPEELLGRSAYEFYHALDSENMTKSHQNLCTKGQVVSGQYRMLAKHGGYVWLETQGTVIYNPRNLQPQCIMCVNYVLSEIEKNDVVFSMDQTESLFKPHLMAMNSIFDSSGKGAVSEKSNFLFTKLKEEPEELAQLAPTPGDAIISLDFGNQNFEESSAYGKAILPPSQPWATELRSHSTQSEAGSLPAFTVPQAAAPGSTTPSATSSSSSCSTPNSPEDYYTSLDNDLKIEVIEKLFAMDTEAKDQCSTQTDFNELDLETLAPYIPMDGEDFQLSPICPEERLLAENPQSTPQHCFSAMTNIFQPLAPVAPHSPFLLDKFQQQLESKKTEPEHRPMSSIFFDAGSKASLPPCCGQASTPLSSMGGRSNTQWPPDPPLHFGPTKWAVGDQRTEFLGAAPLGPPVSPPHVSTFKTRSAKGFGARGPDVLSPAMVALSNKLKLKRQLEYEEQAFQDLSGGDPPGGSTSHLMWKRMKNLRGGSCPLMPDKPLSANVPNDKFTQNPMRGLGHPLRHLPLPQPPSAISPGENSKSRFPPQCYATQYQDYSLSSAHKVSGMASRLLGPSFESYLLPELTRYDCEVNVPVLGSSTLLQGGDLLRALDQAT
The nature of data set [2]: Downregulation of HIF2alpha mRNA expression in human RCC4 cells after 48 hrs by RT-PCR analysis. The format is functional, cell-based.
In data set [3] the test system is 786-0. Briefly: Downregulation of HIF1alpha mRNA expression in human 786-0 cells after 48 hrs by RT-PCR analysis. It is filed as functional, cell-based.
Data set [4] in a line: Downregulation of TGFalpha mRNA expression in human SK-RC-28 cells after 48 hrs by RT-PCR analysis. The format is functional, cell-based.
Data set [5] is described as follows: Downregulation of HIF2alpha mRNA expression in human SK-RC-28 cells after 48 hrs by RT-PCR analysis. The format is functional, cell-based.
In data set [6] the target is T2, Hypoxia inducible factors; HIF-1-alpha, HIF-2-alpha (Homo sapiens) (UniProt Q16665+Q99814). Briefly: Inhibition of HIF1alpha/2alpha in human RCC4 cells assessed as reduction in VEGFA mRNA expression after 48 hrs by RT-PCR analysis. The format is cell-based.
For data set [7], the target named is Hypoxia-inducible factor 1-alpha (Homo sapiens) (UniProt Q16665). Briefly: Inhibition of HIF1alpha in human SK-RC-28 cells assessed as reduction in VEGFA after 48 hrs by RT-PCR analysis. The format is cell-based.
Chain of Hypoxia-inducible factor 1-alpha (Homo sapiens) (Q16665 whole entry, looked up, the tested form may be a part): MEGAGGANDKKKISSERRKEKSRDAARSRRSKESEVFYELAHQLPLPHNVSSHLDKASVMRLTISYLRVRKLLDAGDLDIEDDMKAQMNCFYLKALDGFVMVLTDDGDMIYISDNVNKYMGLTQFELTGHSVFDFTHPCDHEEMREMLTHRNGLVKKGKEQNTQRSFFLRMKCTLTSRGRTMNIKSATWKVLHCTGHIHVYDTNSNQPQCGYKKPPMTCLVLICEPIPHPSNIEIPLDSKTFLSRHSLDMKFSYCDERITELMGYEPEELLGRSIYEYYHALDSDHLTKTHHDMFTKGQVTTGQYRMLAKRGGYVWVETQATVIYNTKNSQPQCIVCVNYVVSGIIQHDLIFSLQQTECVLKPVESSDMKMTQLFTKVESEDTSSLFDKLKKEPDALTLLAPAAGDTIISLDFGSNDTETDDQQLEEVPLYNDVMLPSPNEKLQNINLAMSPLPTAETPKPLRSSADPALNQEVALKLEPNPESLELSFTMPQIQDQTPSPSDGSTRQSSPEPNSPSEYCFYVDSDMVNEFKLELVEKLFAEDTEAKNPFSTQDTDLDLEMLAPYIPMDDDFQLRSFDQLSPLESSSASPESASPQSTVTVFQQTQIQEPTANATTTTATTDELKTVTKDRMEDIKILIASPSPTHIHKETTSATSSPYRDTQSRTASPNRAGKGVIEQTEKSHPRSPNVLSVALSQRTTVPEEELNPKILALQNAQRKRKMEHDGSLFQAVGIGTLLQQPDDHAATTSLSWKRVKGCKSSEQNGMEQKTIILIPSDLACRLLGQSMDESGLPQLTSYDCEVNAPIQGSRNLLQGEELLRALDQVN
The target in data set [8] is T1, Endothelial PAS domain-containing protein 1. Briefly: Inhibition of HIF2alpha in human RCC4 cells coexpressing HIF1alpha assessed as reduction in GLUT1 mRNA expression after 48 hrs by RT-PCR analysis. The format is cell-based.
Data set [9] is described as follows: Downregulation of CCND1 mRNA expression in human SK-RC-28 cells after 48 hrs by RT-PCR analysis. It is filed as functional, cell-based.
Data set [10] concerns the target Hypoxia-inducible factor 1-alpha (Homo sapiens) (UniProt Q16665). Briefly: Inhibition of HIF1alpha in human SK-RC-28 cells assessed as reduction in carbonic anhydrase 9 expression after 48 hrs by RT-PCR analysis. The format is cell-based.
Data set [11] relates to 786-0. Briefly: Downregulation of HIF2alpha mRNA expression in human 786-0 cells after 48 hrs by RT-PCR analysis. It is filed as functional, cell-based.
The target of data set [12] is T1, Endothelial PAS domain-containing protein 1. Briefly: Inhibition of HIF2alpha in human RCC4 cells coexpressing HIF1alpha assessed as reduction in CCND1 mRNA expression after 48 hrs by RT-PCR analysis. The format is cell-based.
Data set [13] deals with 786-0. Briefly: Down regulation of carbonic anhydrase 9 expression in human 786-0 cells after 48 hrs by RT-PCR analysis. The format is functional, cell-based.
Data set [14] in a line: Downregulation of HIF1alpha mRNA expression in human RCC4 cells after 48 hrs by RT-PCR analysis. The format is functional, cell-based.
The target in data set [15] is T1, Endothelial PAS domain-containing protein 1. Briefly: Inhibition of HIF2alpha in human RCC4 cells coexpressing HIF1alpha assessed as reduction in TGFalpha mRNA expression after 48 hrs by RT-PCR analysis. It is filed as cell-based.
A short description of data set [16]: Downregulation of GLUT1 mRNA expression in human SK-RC-28 cells after 48 hrs by RT-PCR analysis. It is filed as functional, cell-based.
The target of data set [17] is T1, Endothelial PAS domain-containing protein 1. Briefly: Inhibition of HIF2alpha in human 786-0 cells assessed as reduction in CCND1 mRNA expression after 48 hrs by RT-PCR analysis. It is filed as cell-based.
For data set [18] the target is unchanged. Briefly: Inhibition of HIF2alpha in human 786-0 cells assessed as reduction in VEGFA after 48 hrs by RT-PCR analysis. It is filed as cell-based.
Data set [19] in a line: Downregulation of HIF1alpha mRNA expression in human SK-RC-28 cells after 48 hrs by RT-PCR analysis. The format is functional, cell-based.
Data set [20] addresses T1, Endothelial PAS domain-containing protein 1. Briefly: Inhibition of HIF2alpha in human 786-0 cells assessed as reduction in GLUT1 mRNA expression after 48 hrs by RT-PCR analysis. The format is cell-based.
Data set [21] has as its target Hypoxia-inducible factor 1-alpha (Homo sapiens) (UniProt Q16665). Briefly: Inhibition of HIF1alpha in human RCC4 cells coexpressing HIF2alpha assessed as decrease in carbonic anhydrase 9 mRNA expression after 48 hrs by RT-PCR analysis. It is filed as cell-based.
Data set [22] addresses T1, Endothelial PAS domain-containing protein 1. Briefly: Inhibition of HIF2alpha in human 786-0 cells assessed as reduction in TGFalpha mRNA expression after 48 hrs by RT-PCR analysis. The format is cell-based.
Data set [23] in a line: Downregulation of TGFalpha mRNA expression in human SK-RC-28 cells at 20 uM after 48 hrs by RT-PCR analysis. The format is functional, cell-based.
Data set [24] concerns the target Hypoxia-inducible factor 1-alpha (Homo sapiens) (UniProt Q16665). Briefly: Inhibition of HIF1alpha in human SK-RC-28 cells assessed as reduction in VEGFA expression at 20 uM after 48 hrs by RT-PCR analysis. The format is cell-based.
For data set [25], the target named is T2, Hypoxia inducible factors; HIF-1-alpha, HIF-2-alpha (Homo sapiens). Briefly: Inhibition of HIF1alpha/2alpha in human RCC4 cells assessed as reduction in VEGFA mRNA expression at 20 uM after 48 hrs by RT-PCR analysis. It is filed as cell-based.
Data set [26] concerns the target Hypoxia-inducible factor 1-alpha (Homo sapiens) (UniProt Q16665). Briefly: Inhibition of HIF1alpha in human SK-RC-28 cells assessed as reduction in carbonic anhydrase expression at 20 uM after 48 hrs by RT-PCR analysis. It is filed as cell-based.
The nature of data set [27]: Downregulation of HIF2alpha mRNA expression in human SK-RC-28 cells at 20 uM after 48 hrs by RT-PCR analysis. The format is functional, cell-based.
Data set [28] deals with 786-0. Briefly: Downregulation of HIF1alpha mRNA expression in human 786-0 cells at 20 uM after 48 hrs by RT-PCR analysis. It is filed as functional, cell-based.
In data set [29] the target is T1, Endothelial PAS domain-containing protein 1. Briefly: Inhibition of HIF2alpha in human 786-0 cells assessed as reduction in CCND1 mRNA expression at 20 uM after 48 hrs by RT-PCR analysis. The format is cell-based.
Data set [30] can be described thus: Downregulation of CCND1 mRNA expression in human SK-RC-28 cells at 20 uM after 48 hrs by RT-PCR analysis. It is filed as functional, cell-based.
Data set [31] concerns the target T1, Endothelial PAS domain-containing protein 1. Briefly: Inhibition of HIF2alpha in human RCC4 cells coexpressing HIF1alpha assessed as reduction in GLUT1 mRNA expression at 20 uM after 48 hrs by RT-PCR analysis. The format is cell-based.
The target is the same in data set [32]. Briefly: Inhibition of HIF2alpha in human 786-0 cells assessed as reduction in TGFalpha mRNA expression at 20 uM after 48 hrs by RT-PCR analysis. The format is cell-based.
The test system of data set [33] is 786-0. Briefly: Cytotoxicity against human 786-0 cells expressing HIF2alpha after 2 days by XTT assay. It is filed as functional, cell-based. Particulars: 786-0, 48 h.
Data set [34] has as its system 786-0. Briefly: Inhibition of total protein expression in serum deprived human 786-0 cells at 20 uM after 48 hrs relative to control. The format is cell-based. Particulars: 786-0, 48 h, 20 µM.
The target in data set [35] is Hypoxia-inducible factor 1-alpha (Homo sapiens) (UniProt Q16665). Briefly: Induction of HIF1alpha in human RCC4 cells assessed as increase in […] 9 expression at 20 uM after 48 hrs by RT-PCR analysis relative to control. The format is cell-based.
Data set [36] addresses T1, Endothelial PAS domain-containing protein 1. Briefly: Inhibition of HIF2alpha in human RCC4 cells coexpressing HIF1alpha assessed as reduction in TGFalpha mRNA expression at 20 uM after 48 hrs by RT-PCR analysis. The format is cell-based.
Data set [37] has the same target. Briefly: Inhibition of HIF2alpha in human 786-0 cells assessed as reduction in GLUT1 mRNA expression at 20 uM after 48 hrs by RT-PCR analysis. It is filed as cell-based.
Data set [38] in a line: Cytotoxicity against human SK-RC-28 cells expressing HIF1alpha after 2 days by XTT assay. The format is functional, cell-based. Particulars: 48 h. On the technique in general: Formazan colour is commonly taken as a measure of viable cells.
A short description of data set [39]: Downregulation of GLUT1 mRNA expression in human SK-RC-28 cells at 20 uM after 48 hrs by RT-PCR analysis. The format is functional, cell-based.
Data set [40] deals with T1, Endothelial PAS domain-containing protein 1. Briefly: Inhibition of HIF2alpha in human 786-0 cells assessed as reduction in VEGFA mRNA expression at 20 uM after 48 hrs by RT-PCR analysis. The format is cell-based.
The nature of data set [41]: Cytotoxicity against human RCC4 cells expressing HIF2alpha and HIF1alpha after 2 days by XTT assay. It is filed as functional, cell-based. Particulars: RCC4, 48 h.
In data set [42] the test system is 786-0. Briefly: Inhibition of HIF-mediated VEGFA protein expression in serum deprived human 786-0 cells at 20 uM after 48 hrs relative to control. It is filed as cell-based.
A short description of data set [43]: Downregulation of HIF1alpha mRNA expression in human RCC4 cells at 20 uM after 48 hrs by RT-PCR analysis. The format is functional, cell-based.
Data set [44] deals with 786-0. Briefly: Downregulation of HIF2alpha mRNA expression in human 786-0 cells at 20 uM after 48 hrs by RT-PCR analysis. The format is functional, cell-based.
In data set [45] the target is T1, Endothelial PAS domain-containing protein 1. Briefly: Inhibition of HIF2alpha in human RCC4 cells coexpressing HIF1alpha assessed as reduction in CCND1 mRNA expression at 20 uM after 48 hrs by RT-PCR analysis. The format is cell-based.
The nature of data set [46]: Downregulation of HIF1alpha mRNA expression in human SK-RC-28 cells at 20 uM after 48 hrs by RT-PCR analysis. It is filed as functional, cell-based.
Data set [47] is described as follows: Downregulation of HIF2alpha mRNA expression in human RCC4 cells at 20 uM after 48 hrs by RT-PCR analysis. It is filed as functional, cell-based.

Turning to `COC1=C(C)C(=O)c2cc(=O)n(C)c(C)c2C1=O` [MIMOSAMYCIN], in [1], the EC50 (commonly the midpoint of the concentration-response curve) was over 100 µM.

For `CC(=O)O[C@@H]1OC=C2[C@@H](OC(C)=O)C[C@H]3[C@]4(C)CC[C@H]5C(C)(C)CCC[C@]5(C)[C@H]4C[C@@H](O)[C@]3(C)[C@H]21` [HETERONEMIN], in [1], the EC50 was determined as 1.2 µM.

Regarding `CC(=O)O[C@H]1C[C@H]2[C@@](C)(CC[C@H]3C(C)(C)CCC[C@@]32C=O)[C@@H]2CC=C(C(C)=O)[C@H](C=O)[C@@]12C`, the EC50 in data set [1] came to 4.2 µM.

For the molecule `C/C=C(/C)C(=O)OCc1nccc2c1C(=O)C(O)=C(C)C2=O`, the outcome (in data set [2]; with 786-0 [3]; in [4]; in data set [5]; in data set [9]; in the data set with 786-0 [11]) was inactive. Also, the result (in the data set on 786-0 [13]; in data set [14]; in data set [16]; in data set [19]) was inactive. In addition, the inhibition result in [6], in [7], in data set [8], in data set [10], in [12] and in data set [15] was “inactive” each time. Moreover, the inhibition result in [17], in [18], in data set [20], in [21] and in data set [22] was “inactive” in each case. Besides, the concentration for a half-maximal effect (EC50) in [1] was over 100 µM.

Turning to `CC1(C)CCC[C@]2(C)[C@H]3C=C4C=C(O)C(=O)C=C4O[C@@]3(C)CC[C@@H]12` [PUUPEHENONE], the result in [23], in data set [27], in [30], in [39] and in [46] was inactive. Also, the inhibition entry in [24] and in data set [26] was “inactive” throughout. In addition, the inhibition entry in data set [25], in [29], in data set [31], in [32], in data set [36] and in [37] was “Active” each time. In addition, the inhibition entry (in [40]; in the data set on 786-0 [42]; in [45]) was “Active” each time. In addition, the EC50 in data set [1] stood at 3.3 µM. The outcome (in the data set with 786-0 [28]; in data set [43]; with 786-0 [44]; in [47]) was Active. The IC50 – broadly, the concentration that gives 50% inhibition – with 786-0 [33] is 17.7 µM; in data set [38], 15.5 µM; in data set [41] it was 18 µM. Moreover, the Activity entry with 786-0 [34] was “Toxic”. Moreover, in data set [35], the fold change (FC) was 4.

Take `CC(=O)OC[C@]12CCCC(C)(C)[C@@H]1CC[C@]1(C)[C@@H]2C[C@H]2OC(=O)[C@H]3[C@H](C(C)=O)[C@@H](O)C[C@@H]1[C@]23C`: the EC50 in data set [1] was over 100 µM.

Regarding `COc1cc2ccnc3c2c(c1OC)NC=C3` [AAPTAMINE], in data set [1], the concentration for a half-maximal effect (EC50) was over 100 µM.

On to `C[C@@]12CCCc3coc(c31)C(=O)c1cc3c(cc12)C(=O)C=CC3=O` [XESTOQUINONE], for which the EC50 in [1] was over 100 µM.

For the origin of these results see ChEMBL document CHEMBL2177034, “Inhibition of hypoxia inducible factor-2 transcription: isolation of active modulators from marine sponges” (J Nat Prod, 2012).
